Laboratory results reported in patent US11065244B2, “Methods of use of tetrahydroberberine (THB)” (DIGNITY HEALTH, priority 2010, dated 2021).

Key:
[1] = target: T1, KATP channels in SNc DA neurons (Rattus norvegicus, UniProt P70673+Q09429); assay: Perforated patch current-clamp recording of rotenone-opened KATP channels in dissociated SNc DA neurons; format: cell-based; settings: for altered membrane potential in the presence of rotenone: FIG. 5C
T1 construct: functional KATP channels natively expressed on midbrain dopamine neurons; from tissue; host or cells: acutely dissociated dopaminergic neurons of rat substantia nigra pars compacta
Experimental: (§1) The protocol for preparation of single neurons from the rat SNc was approved by the Institutional Animal Care and Use Committee of the Barrow Neurological Institute. Single DA neurons were acutely dissociated from the SNc of 2-3-week-old Wistar rats following the protocol as previously described. Briefly, rats were anesthetized with isoflurane, and brain tissue was rapidly removed and immersed in cold (2-4° C.) dissection solution which contained: 136.7 mM NaCl, 5 mM KCl, 0.1 mM Na2HPO4, 0.2 mM KH2PO4, 9.84 mM HEPES, 16.6 mM D-glucose, 21.9 mM sucrose, pH 7.3, 330 mOsm, oxygenated with 100% O2 [8]. Three 400-μm coronal slices containing the SNc were cut using a vibrotome (Vibroslice 725M, WPI, Sarasota, Fla.). After cutting, slices were continuously bubbled with 95% O2-5% CO2 at room temperature (22±1° C.) for at least one hour in artificial cerebrospinal fluid (ACSF), which contained: 124 mM NaCl, 5 mM KCl, 24 mM NaHCO3, 1.3 mM MgSO4, 1.2 mM KH2PO4, 2.4 mM CaCl2, and 10 mM glucose, pH 7.4. Thereafter, slices were treated with pronase (1 mg per 6 ml) at 31° C. for 30 minutes in ACSF. The SNc was identified in a coronal slice using a stereo microscope with reference to the rat brain atlas, and was micro-punched out from slices using a well-polished needle. One punched piece was then transferred to a 35-mm culture dish filled with well-oxygenated standard extracellular solution, which contained: 150 mM NaCl, 5 mM KCl, 1 mM MgCl2, 2 mM CaCl2, 10 mM glucose 10, and 10 mM HEPES, pH 7.4 (with Tris-base). The punched piece was then dissociated mechanically using a fire-polished micro-Pasteur pipette under an inverted microscope (Olympus IX-70, Lake Success, N.Y.). The separated cells adhered to the bottom of the culture dish within 30 minutes. In the present study, we used only DA neurons that maintained their original morphological features of polygonal, large or medium somata with 2-4 thick primary dendritic processes were used.
Perforated patch whole-cell recording techniques were employed as previously described. Pipettes (3-5 MΩ) used for perforated patch recording were filled with intracellular recording solution containing 140 mM potassium gluconate, 10 mM KCl, 5 mM MgCl2, and 10 mM HEPES, pH 7.2 (with Tris-OH). The amphotericin B was freshly prepared to 200-240 μg/ml from a 40 mg/ml in DMSO stock. The liquid junction potential was 14 mV calculated using Clamplex 9.2 (Axon Instruments, Foster City, Calif.) and corrections were made for junction potentials post-hoc. After tight seal (>2 GΩ) formation, it usually took about 5-20 min to convert to perforated patch mode, and an access resistance of 20-60 MΩ was accepted to start the experiments. Series resistance was not compensated in this study. The data were filtered at 2 kHz, acquired at 10 kHz and digitized on-line (Digidata 1322 series A/D board, Axon Instruments, Foster City, Calif.). […] Drug application was performed using a computer-controlled “U-tube” system as previously described. All experiments were performed at room temperature (22±1° C.). To enable identification of single, dissociated SNc neurons after a patch-clamp recording session, the recording pipette was filled with a fluorescent dye (lucifer yellow CH, Sigma Chemical Co., St. Louis, Mo., 1.0 mg/ml in the recording electrode) in some experiments. After conversion from the perforated patch to the conventional whole-cell recording mode, the dye was ejected into the cytoplasm by a pulse (200 ms, 0.5 Hz) of hyperpolarizing current (1.0 nA) for 3 min. Labeled cells were visualized using epifluorescence microscopy.
Under physiological conditions, the KATP channels are mostly closed. However, in the acutely-dissociated single neurons from rat SNc, there is background opening of KATP channels. […]

SNc DA neurons = assay: Perforated patch current-clamp recording of membrane potential and firing of dissociated SNc DA neurons, substance applied alone; format: cell-based, rat
Experimental: as §1
Perforated patch whole-cell recording techniques were employed as previously described. Pipettes (3-5 MΩ) used for perforated patch recording were filled with intracellular recording solution containing 140 mM potassium gluconate, 10 mM KCl, 5 mM MgCl2, and 10 mM HEPES, pH 7.2 (with Tris-OH). The amphotericin B was freshly prepared to 200-240 μg/ml from a 40 mg/ml in DMSO stock. The liquid junction potential was 14 mV calculated using Clamplex 9.2 (Axon Instruments, Foster City, Calif.) and corrections were made for junction potentials post-hoc. After tight seal (>2 GΩ) formation, it usually took about 5-20 min to convert to perforated patch mode, and an access resistance of 20-60 MΩ was accepted to start the experiments. Series resistance was not compensated in this study. The data were filtered at 2 kHz, acquired at 10 kHz and digitized on-line (Digidata 1322 series A/D board, Axon Instruments, Foster City, Calif.). […] Drug application was performed using a computer-controlled “U-tube” system as previously described. All experiments were performed at room temperature (22±1° C.). To enable identification of single, dissociated SNc neurons after a patch-clamp recording session, the recording pipette was filled with a fluorescent dye (lucifer yellow CH, Sigma Chemical Co., St. Louis, Mo., 1.0 mg/ml in the recording electrode) in some experiments. After conversion from the perforated patch to the conventional whole-cell recording mode, the dye was ejected into the cytoplasm by a pulse (200 ms, 0.5 Hz) of hyperpolarizing current (1.0 nA) for 3 min. Labeled cells were visualized using epifluorescence microscopy. […]

[2] = system: D2 receptor and dopamine-opened K+ channels; assay: Dopamine-induced membrane potential hyperpolarization in dissociated SNc DA neurons; format: cell-based, rat
Experimental: All experiments were performed at room temperature (22±1° C.).

rat pancreatic islets = assay: Insulin release from rat pancreatic islets; format: cell-based; settings: 100 μM; 5.5 mM glucose external; from 22.5±1.2
Experimental: With 5.5 mM glucose in the external solution, basal insulin secretion was measured. […] Bath application of 100 μM THB increased insulin secretion from 22.5±1.2 to 39.4±1.5 pg/islet/min (FIG. 5; P<0.01; 6 cells) and 100 μM Ipt increased insulin secretion from 22.5±1.2 to 34.5±1.8 pg/islet/min (FIG. 11; P<0.05; 7 cells).

T1 sequence (P70673 whole entry): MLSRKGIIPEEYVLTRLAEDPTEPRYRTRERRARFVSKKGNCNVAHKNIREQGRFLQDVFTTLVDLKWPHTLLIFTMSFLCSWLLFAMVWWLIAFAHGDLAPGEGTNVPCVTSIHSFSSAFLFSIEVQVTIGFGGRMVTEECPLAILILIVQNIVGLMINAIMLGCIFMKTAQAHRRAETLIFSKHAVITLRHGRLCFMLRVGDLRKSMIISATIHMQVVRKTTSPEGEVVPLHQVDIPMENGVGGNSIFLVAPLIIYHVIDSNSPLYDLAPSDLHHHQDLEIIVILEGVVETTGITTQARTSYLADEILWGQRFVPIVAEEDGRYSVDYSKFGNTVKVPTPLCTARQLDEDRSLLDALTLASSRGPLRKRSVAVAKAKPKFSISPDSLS
T1 sequence (Q09429 whole entry): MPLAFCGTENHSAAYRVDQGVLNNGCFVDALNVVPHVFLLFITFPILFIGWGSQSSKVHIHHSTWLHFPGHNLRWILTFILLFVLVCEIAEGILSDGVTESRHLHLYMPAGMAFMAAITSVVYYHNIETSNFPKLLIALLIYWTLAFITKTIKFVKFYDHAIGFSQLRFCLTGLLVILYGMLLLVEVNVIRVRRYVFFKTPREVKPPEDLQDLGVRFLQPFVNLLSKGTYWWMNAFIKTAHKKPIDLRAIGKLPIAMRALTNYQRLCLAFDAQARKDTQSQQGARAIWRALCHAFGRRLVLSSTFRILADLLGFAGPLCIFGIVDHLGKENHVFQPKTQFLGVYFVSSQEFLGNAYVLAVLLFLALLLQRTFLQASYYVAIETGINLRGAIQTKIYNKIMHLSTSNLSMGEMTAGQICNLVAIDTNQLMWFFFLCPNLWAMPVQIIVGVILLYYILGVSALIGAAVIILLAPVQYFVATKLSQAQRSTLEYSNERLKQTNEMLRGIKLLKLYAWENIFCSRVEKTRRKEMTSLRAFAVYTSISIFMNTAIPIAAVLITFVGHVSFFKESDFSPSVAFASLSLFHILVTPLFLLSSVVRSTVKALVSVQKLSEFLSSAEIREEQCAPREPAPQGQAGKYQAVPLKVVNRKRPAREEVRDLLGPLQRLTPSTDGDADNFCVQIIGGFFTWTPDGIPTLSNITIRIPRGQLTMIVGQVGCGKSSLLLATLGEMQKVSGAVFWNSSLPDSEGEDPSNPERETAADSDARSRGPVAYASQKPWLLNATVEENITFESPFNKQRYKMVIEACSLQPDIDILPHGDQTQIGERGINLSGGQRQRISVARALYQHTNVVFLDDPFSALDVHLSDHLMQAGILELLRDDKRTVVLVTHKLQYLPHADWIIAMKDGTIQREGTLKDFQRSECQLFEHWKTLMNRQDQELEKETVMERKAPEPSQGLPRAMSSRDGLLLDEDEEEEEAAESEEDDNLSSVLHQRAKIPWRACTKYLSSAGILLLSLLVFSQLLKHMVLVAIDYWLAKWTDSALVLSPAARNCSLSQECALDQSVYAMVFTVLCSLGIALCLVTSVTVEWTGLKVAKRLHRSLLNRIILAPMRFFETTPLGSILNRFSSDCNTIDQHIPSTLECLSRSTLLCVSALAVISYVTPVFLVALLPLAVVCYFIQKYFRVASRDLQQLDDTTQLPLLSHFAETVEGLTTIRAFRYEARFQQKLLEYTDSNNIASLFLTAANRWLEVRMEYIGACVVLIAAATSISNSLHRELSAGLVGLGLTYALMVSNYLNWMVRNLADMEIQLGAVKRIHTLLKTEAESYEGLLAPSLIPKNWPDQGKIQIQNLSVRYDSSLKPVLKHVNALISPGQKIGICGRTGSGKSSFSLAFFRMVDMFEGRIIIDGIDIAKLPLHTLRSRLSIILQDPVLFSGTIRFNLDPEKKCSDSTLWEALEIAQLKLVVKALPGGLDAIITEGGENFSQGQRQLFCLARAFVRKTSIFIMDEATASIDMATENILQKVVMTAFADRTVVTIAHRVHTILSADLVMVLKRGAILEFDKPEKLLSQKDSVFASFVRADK

## COc1ccc2c(c1OC)CN1CCc3cc4c(cc3C1C2)OCO4 (stereo not shown) [THB, tetrahydroberberine]
[1]; 1 μM rotenone, before: THB −61.7±1.3 (n=11), tolbutamide −61.6±1.2 (n=21), p<0.01
  membrane potential after substance during persistent perfusion of rotenone: −46.7±0.9 mV
[1]; 1 μM substance
  altered membrane potential in the presence of rotenone: 0.8±0.3 mV
[1]; 10 μM substance
  altered membrane potential in the presence of rotenone: 5.7±0.7 mV
[1]; 100 μM substance
  altered membrane potential in the presence of rotenone: 15.1±1.2 mV
[1]; 100 μM, 6 neurons, FIG. 4B
  altered membrane potential (depolarization) on rotenone-opened KATP channels, analog comparison: 15.5±1.6 mV
[1]; membrane depolarization in the presence of rotenone
  Hill coefficient of concentration-effect relationship curve: 2.1
[1]; membrane depolarization in the presence of rotenone, read-out: IC50 of concentration-effect relationship curve (block of KATP channels)
  IC50: 13.1 µM
[1]; rotenone 1 mM and sulpiride 10 mM as printed, 6 neurons, FIG. 7A
  effect on rotenone-induced membrane hyperpolarization in the presence of D2 receptor antagonist: significantly restored membrane hyperpolarization and action potential firing
SNc DA neurons; 100 μM bath-perfusion, before exposure 1.4 Hz, n=7, p<0.05
  firing rate of spontaneous action potentials after exposure: 2.2 Hz
SNc DA neurons; 100 μM, before: THB −46.5±0.9 (n=7), tolbutamide −44.4±1.6 (n=5)
  membrane potential after exposure to substance alone: −41.3±1.9 mV
[2]; 100 μM THB (from −45.6±1.0, n=7), tolbutamide (from −45.3±2.3, n=4)
  membrane potential after co-application of dopamine with substance: −38.6±1.2 mV
[2]; difference THB vs tolbutamide p>0.05
  altered membrane potential on co-application with dopamine: 7.0±0.9 mV
Rat pancreatic islets
  insulin secretion after bath application: 39.4±1.5 pg/islet/min
